According to patent EP0979831B1, “Antibacterial peptides and antibacterial agents containing such peptides as an effective ingredient” (National Institute of Agrobiological Sciences, priority 1998, dated 2003):
≈ marks a conversion by molar mass, not a printed value. Residues, ends and D or L forms follow the SMILES beside them.

test system: Escherichia coli; format: cell-based
Description: Minimum Inhibitory Concentration (MIC) of these antibacterial peptides (1) to (5) against Staphylococcus aureus, methicillin resistant Staphylococcus aureus (MRSA), Escherichia coli and Pseudomonas aeruginosa was determined.

| MIC E coli | Compound |
| --- | --- |
| 4 µg/mL (≈ 3.65 µM) | CC[C@H](C)[C@H](NC(=O)[C@H](C)NC(=O)[C@H](CC(C)C)NC(=O)[C@H](CCCNC(=N)N)NC(=O)[C@H](CC(C)C)NC(=O)[C@H](C)N)C(=O)N[C@@H](CCCNC(=N)N)C(=O)N[C@@H](CCCCN)C(=O)N[C@@H](CCCNC(=N)N)C(N)=O [present peptide (1), Ala Leu Arg Leu Ala Ile Arg Lys Arg] (H-ALRLAIRKR-NH2) |
| 5 µg/mL (≈ 4.44 µM) | CC[C@H](C)[C@H](NC(=O)[C@H](C)NC(=O)[C@H](CC(C)C)NC(=O)[C@H](CC(C)C)NC(=O)[C@H](Cc1c[nH]c2ccccc12)NC(=O)[C@H](C)N)C(=O)N[C@@H](CCCNC(=N)N)C(=O)N[C@@H](CCCCN)C(=O)N[C@@H](CCCNC(=N)N)C(N)=O [present peptide (3), Ala Trp Leu Leu Ala Ile Arg Lys Arg] (H-AWLLAIRKR-NH2) |
| 10 µg/mL (≈ 8.89 µM) | CC[C@H](C)[C@H](NC(=O)[C@H](C)NC(=O)[C@H](CC(C)C)NC(=O)[C@H](Cc1c[nH]c2ccccc12)NC(=O)[C@H](CC(C)C)NC(=O)[C@H](C)N)C(=O)N[C@@H](CCCNC(=N)N)C(=O)N[C@@H](CCCCN)C(=O)N[C@@H](CCCNC(=N)N)C(N)=O [present peptide (5), Ala Leu Trp Leu Ala Ile Arg Lys Arg] (H-ALWLAIRKR-NH2) |

More lines, now with the values behind:

| Compound | MIC E coli |
| --- | --- |
| CC[C@H](C)[C@H](NC(=O)[C@H](C)NC(=O)[C@H](CC(C)C)NC(=O)[C@H](CC(C)C)NC(=O)[C@H](CC(C)C)NC(=O)[C@H](C)N)C(=O)N[C@@H](CCCNC(=N)N)C(=O)N[C@@H](CCCCN)C(=O)N[C@@H](CCCNC(=N)N)C(N)=O [present peptide (2), Ala Leu Leu Leu Ala Ile Arg Lys Arg] (H-ALLLAIRKR-NH2) | 6 µg/mL (≈ 5.7 µM) |
| CC[C@H](C)[C@H](NC(=O)[C@H](C)NC(=O)[C@H](CC(C)C)NC(=O)[C@H](Cc1ccc(O)cc1)NC(=O)[C@H](CC(C)C)NC(=O)[C@H](C)N)C(=O)N[C@@H](CCCNC(=N)N)C(=O)N[C@@H](CCCCN)C(=O)N[C@@H](CCCNC(=N)N)C(N)=O [present peptide (4), Ala Leu Trp Leu Ala Ile Arg Lys Arg] | 4 µg/mL (≈ 3.63 µM) |
